# Measurements from PubChem BioAssay AID588465 (NMMLSC, 2011).
# Target: Beta-adrenergic receptor kinase 1 (Homo sapiens) (UniProt P25098)
# Assay: inhibition of GRK2-catalyzed rhodopsin phosphorylation – biochemical, set 1, orthogonal assay for GRK2 aptamer-displacement inhibitor project, late-stage follow-up (AID 588465)
# Conditions: 32P incorporation, ROS, at 200 µM, stronger effect = lower value
# Sequence of Beta-adrenergic receptor kinase 1 (Homo sapiens) (P25098 whole entry, looked up): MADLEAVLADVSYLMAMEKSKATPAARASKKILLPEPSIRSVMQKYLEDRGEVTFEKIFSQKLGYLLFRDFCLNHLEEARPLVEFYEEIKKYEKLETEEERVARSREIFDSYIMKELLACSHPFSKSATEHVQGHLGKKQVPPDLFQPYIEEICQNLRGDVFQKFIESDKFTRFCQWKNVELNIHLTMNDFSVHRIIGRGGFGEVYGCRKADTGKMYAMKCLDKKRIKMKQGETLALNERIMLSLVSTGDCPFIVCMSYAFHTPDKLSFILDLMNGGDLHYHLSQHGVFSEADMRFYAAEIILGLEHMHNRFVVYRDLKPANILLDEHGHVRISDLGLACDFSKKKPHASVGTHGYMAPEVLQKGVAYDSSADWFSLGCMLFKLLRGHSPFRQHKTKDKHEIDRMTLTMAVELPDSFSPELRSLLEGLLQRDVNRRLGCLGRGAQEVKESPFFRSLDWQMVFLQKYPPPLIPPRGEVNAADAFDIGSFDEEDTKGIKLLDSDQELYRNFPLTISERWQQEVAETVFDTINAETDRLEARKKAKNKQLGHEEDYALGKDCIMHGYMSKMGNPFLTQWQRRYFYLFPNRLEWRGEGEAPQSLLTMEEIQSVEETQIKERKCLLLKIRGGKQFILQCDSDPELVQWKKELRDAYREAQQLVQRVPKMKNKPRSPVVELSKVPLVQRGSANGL
row,percent response (negative = inhibition) [%],Structure (SMILES)
1,-42.4,Cc1cc2ccccc2n1CCNC(=O)c1cccs1
2,-35.6,O=C(CCS(=O)(=O)c1ccc(Br)cc1)NCCc1ccc(Cl)cc1
3,-12.6,Cc1ccccc1NC(=O)CCS(=O)(=O)c1ccc(Br)cc1
4,-26,CCc1ccccc1NC(=O)CCS(=O)(=O)c1ccc(Br)cc1
5,-37.5,O=C(CCS(=O)(=O)c1ccc(Br)cc1)Nc1cc(F)ccc1F
6,-59.5,COc1ccc(CNC(=O)CCS(=O)(=O)c2ccc(Br)cc2)cc1
7,-24,Cc1cccc(N2CCN(C(=O)CCS(=O)(=O)c3ccc(Br)cc3)CC2C)c1 (stereo not given)
8,-77.7,O=C(O)C1CC(=O)N(c2ccc3c(c2)OCCO3)C1 (stereo not given)
9,-69.7,CCOc1ccc(CCNC(=O)CCS(=O)(=O)c2ccc(Br)cc2)cc1OCC
10,-17.7,Cc1cc(=O)[nH]c(SCC(=O)NCc2ccco2)n1
